# Measurements taken from US20250388582A1, “NOVEL BICYCLIC HETEROARYL COMPOUND AND USE THEREOF” (ILDONG PHARMACEUTICAL CO., LTD., priority 2022, published 2025).
# Key:
# [1] = target: T1, PIKFYVE (Homo sapiens, UniProt Q9Y2I7); test: NanoBRET TE Intracellular Kinase Assay, interaction of PIKFYVE and compounds in HEK293 cells; type: cell-based; details: IC50 class from BRET; HEK293 cells expressing PIKFYVE-NanoLuc; 2 hours incubation
# T1 construct: host or cells: HEK293 (ATCC, CRL-1573)
# Procedure: To predict the efficacy of the compounds according to Example on PIKFYVE in humans, the interaction between PIKFYVE and the compounds was tested using the HEK293 cell line derived from human embryonic kidney (ATCC, CRL-1573) via NanoBRETT TE Intracellular Kinase Assay Service of Carna biosciences Inc., (Japan). The evaluation method provided by Carna biosciences Inc., was shown below and the NanoBRET™ TE Intracellular Kinase Assay, K-8 Kit (Promega, CS1810C88) was used.
# The HEK-293 cells cultured in Opti-MEM™ I Reduced Serum Medium (Thermo Fisher, 11058-021) were transfected with Transfection Carrier DNA (Promega, E4881), PIKFYVE-NanoLuc Fusion Vector (Promega, CS1810C225), and FuGENE HD Transfection Reagent (Promega, E2311) to produce cells expressing genes combining PIKFYVE and NanoLuc, followed by culturing 100 μl (2×10^5 cells/ml) each in 96-well plates (Corning, 3917).
# 10× compounds according to Examples or Comparative Examples prepared by concentration in 1× NanoBRET™ tracer reagent and DMSO were reacted in 96-well plates and incubated for 2 hours in a 37° C., 5% CO2 incubator.
# After the reaction was completed, 3× Complete NanoBRET™ Nano-Glo Substrate solution was added to each well, and the reaction was allowed to run for 2-3 minutes at room temperature before BRET was measured using a GloMax Discover Multimode Microplate Reader (Promega).
# [2] = target: T2, human GST-PIKFYVE (Homo sapiens, UniProt Q9Y2I7); test: ADP-Glo kinase assay, enzyme inhibition activity against human PIKFYVE (Carna biosciences); type: biochemical; details: inhibitory activity at final compound concentration 10 nM; 1 hour at room temperature
# T2 construct: GST; purchased Carna biosciences 11-118
# Method in brief: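 Human GST-PIKFYVE (glutathione Sepharose-purified) was reacted with substrate and ATP for 1 h at room temperature in 50 mM MOPS, 1 mM DTT, pH 7.2, with compound at 10 nM final. ADP formed was read by ADP-Glo luminescence; inhibition was calculated against no-enzyme (100%) and no-compound (0%) controls.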
# T2 sequence (Q9Y2I7 whole entry): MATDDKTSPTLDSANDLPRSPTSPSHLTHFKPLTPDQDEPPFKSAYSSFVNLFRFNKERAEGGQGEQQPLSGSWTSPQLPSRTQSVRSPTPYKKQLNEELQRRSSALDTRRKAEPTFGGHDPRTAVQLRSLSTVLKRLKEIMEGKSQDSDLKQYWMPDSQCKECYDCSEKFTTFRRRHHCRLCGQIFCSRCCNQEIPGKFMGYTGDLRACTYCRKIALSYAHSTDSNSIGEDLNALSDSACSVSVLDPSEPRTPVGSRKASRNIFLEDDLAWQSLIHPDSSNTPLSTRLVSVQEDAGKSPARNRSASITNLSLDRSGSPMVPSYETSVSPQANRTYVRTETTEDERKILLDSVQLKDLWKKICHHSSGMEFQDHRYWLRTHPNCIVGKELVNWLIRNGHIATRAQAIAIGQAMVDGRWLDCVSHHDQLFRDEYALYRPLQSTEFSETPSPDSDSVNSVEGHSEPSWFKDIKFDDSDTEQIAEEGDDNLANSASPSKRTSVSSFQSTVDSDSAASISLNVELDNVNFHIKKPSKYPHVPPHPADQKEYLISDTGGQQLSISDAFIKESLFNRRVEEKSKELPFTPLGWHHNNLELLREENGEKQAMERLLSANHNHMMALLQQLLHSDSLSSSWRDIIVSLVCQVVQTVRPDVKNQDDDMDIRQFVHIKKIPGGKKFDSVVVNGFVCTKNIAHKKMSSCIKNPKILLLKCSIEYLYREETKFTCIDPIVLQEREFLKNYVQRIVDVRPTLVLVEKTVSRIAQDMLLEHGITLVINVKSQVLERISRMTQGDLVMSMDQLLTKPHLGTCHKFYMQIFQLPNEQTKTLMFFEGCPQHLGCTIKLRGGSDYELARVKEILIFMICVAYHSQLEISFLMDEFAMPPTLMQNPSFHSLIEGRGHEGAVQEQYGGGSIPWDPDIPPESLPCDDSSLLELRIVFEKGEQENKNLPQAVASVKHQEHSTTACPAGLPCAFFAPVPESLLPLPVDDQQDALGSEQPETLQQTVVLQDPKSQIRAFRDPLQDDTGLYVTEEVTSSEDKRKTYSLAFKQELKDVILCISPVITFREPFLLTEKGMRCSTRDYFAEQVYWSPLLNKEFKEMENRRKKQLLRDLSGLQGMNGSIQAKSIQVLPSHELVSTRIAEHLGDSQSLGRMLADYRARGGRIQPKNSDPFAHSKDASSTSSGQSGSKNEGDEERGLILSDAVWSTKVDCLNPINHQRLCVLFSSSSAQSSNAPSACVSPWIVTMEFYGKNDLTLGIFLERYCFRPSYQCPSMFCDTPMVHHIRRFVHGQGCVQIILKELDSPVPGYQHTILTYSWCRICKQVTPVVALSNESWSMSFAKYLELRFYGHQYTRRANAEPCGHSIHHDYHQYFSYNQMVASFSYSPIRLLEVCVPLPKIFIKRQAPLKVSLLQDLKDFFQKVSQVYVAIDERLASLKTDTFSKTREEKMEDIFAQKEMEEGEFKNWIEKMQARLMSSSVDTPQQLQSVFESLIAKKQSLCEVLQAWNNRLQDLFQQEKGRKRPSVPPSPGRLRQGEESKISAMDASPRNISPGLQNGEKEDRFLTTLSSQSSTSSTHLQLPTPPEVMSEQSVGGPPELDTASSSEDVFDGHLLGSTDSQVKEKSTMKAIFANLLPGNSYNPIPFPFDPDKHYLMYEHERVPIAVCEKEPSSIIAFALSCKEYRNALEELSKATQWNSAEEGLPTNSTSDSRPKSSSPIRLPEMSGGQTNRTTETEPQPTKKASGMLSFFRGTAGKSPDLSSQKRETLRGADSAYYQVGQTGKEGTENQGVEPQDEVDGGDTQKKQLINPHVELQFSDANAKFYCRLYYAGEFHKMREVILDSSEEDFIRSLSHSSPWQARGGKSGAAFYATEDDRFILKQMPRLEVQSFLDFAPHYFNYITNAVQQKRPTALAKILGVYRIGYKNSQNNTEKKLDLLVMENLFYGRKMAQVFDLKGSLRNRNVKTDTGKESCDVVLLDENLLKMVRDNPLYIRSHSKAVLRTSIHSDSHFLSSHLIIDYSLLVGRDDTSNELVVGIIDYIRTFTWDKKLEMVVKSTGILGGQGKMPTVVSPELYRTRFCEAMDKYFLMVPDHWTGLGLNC
# T1 sequence (Q9Y2I7 whole entry): as above
Structure (SMILES),IC50 [1],"ADP-Glo kinase assay (%, 10 nM) [2]"
"Cc1cccc(/C=N/Nc2nc(N3CCOCC3)nc3c2ncn3CC(=O)c2cccc(C)c2)c1 [Example 41, (E)-2-(6-(2-(3-methylbenzylidene)hydrazinyl)-2-morpholino-9H-purin-9-yl)-1-(m-tolyl)ethan-1-one]",≤ 10 nM,76.69%
"Cc1cccc(/C=N/Nc2nc(N3CCOCC3)nc3c2ncn3CC(=O)c2cccc(C(F)(F)F)c2)c1 [Example 44, (E)-2-(6-(2-(3-methylbenzylidene)hydrazinyl)-2-morpholino-9H-purin-9-yl)-1-(3-(trifluoromethyl)phenyl)ethan-1-one]",20 to 30 nM,62.80%
"Cc1cccc(/C=N/Nc2nc(N3CCOCC3)nc3c2ncn3CC(=O)c2ccc(C(F)(F)F)cc2)c1 [Example 45, (E)-2-(6-(2-(3-methylbenzylidene)hydrazinyl)-2-morpholino-9H-purin-9-yl)-1-(4-(trifluoromethyl)phenyl)ethan-1-one]",20 to 30 nM,67.70%
"Cc1cccc(/C=N/Nc2nc(N3CCOCC3)nc3c2ncn3CC(=O)c2cccc(F)c2)c1 [Example 46, (E)-1-(3-fluorophenyl)-2-(6-(2-(3-methylbenzylidene)hydrazinyl)-2-morpholino-9H-purin-9-yl)ethan-1-one]",10 to 20 nM,73.96%
"Cc1cccc(/C=N/Nc2nc(N3CCOCC3)nc3c2ncn3CC(=O)c2cccc(Cl)c2)c1 [Example 49, (E)-1-(3-chlorophenyl)-2-(6-(2-(3-methylbenzylidene)hydrazinyl)-2-morpholino-9H-purin-9-yl)ethan-1-one]",≤ 10 nM,78.87%
"Cc1cccc(/C=N/Nc2nc(N3CCOCC3)nc3c2ncn3CC(=O)c2cc(C(F)(F)F)ccn2)c1 [Example 52, (E)-2-(6-(2-(3-methylbenzylidene)hydrazinyl)-2-morpholino-9H-purin-9-yl)-1-(4-(trifluoromethyl)pyridin-2-yl)ethan-1-one]",20 to 30 nM,67.10%
"Cc1cccc(/C=N/Nc2nc(N3CCOCC3)nc3c2ncn3CC(=O)c2ccc(F)cn2)c1 [Example 53, (E)-1-(5-fluoropyridin-2-yl)-2-(6-(2-(3-methylbenzylidene)hydrazinyl)-2-morpholino-9H-purin-9-yl)ethan-1-one]",20 to 30 nM,70.90%
"Cc1cccc(/C=N/Nc2nc(N3CCOCC3)nc3c2ncn3CCc2ccccn2)c1 [Example 73, (E)-4-(6-(2-(3-methylbenzylidene)hydrazinyl)-9-(2-(pyridin-2-yl)ethyl)-9H-purin-2-yl)morpholine]",10 to 20 nM,80.98%
"Cc1cccc(/C=N/Nc2nc(N3CCOCC3)nc3c2ncn3CC2(C)COC2)c1 [Example 74, (E)-4-(6-(2-(3-methylbenzylidene)hydrazinyl)-9-((3-methyloxetan-3-yl)methyl)-9H-purin-2-yl)morpholine]",20 to 30 nM,69.71%
"Cc1cccc(/C=N/Nc2nc(N3CCOCC3)nc3c2ncn3CCc2cccnc2)c1 [Example 80, (E)-4-(6-(2-(3-methylbenzylidene)hydrazinyl)-9-(2-(pyridin-3-yl)ethyl)-9H-purin-2-yl)morpholine]",≤ 10 nM,83.61%
"Cc1cccc(/C=N/Nc2nc(N3CCOCC3)nc3c2ncn3C2CCN(C(=O)c3cccnc3)CC2)c1 [Example 87, (E)-(4-(6-(2-(3-methylbenzylidene)hydrazinyl)-2-morpholino-9H-purin-9-yl)piperidin-1-yl)(pyridin-3-yl)methanone]",10 to 20 nM,63.65%
"Cc1cccc(/C=N/Nc2nc(N3CCOCC3)nc3c2ncn3C2CCN(C(=O)N3CCOCC3)CC2)c1 [Example 88, (E)-(4-(6-(2-(3-methylbenzylidene)hydrazinyl)-2-morpholino-9H-purin-9-yl)piperidin-1-yl)(morpholino)methanone]",20 to 30 nM,64.66%
"Cc1cccc(/C=N/Nc2nc(N3CCOCC3)nc3c2ncn3C2CCN(C(=O)c3ccccc3)CC2)c1 [Example 89, (E)-(4-(6-(2-(3-methylbenzylidene)hydrazinyl)-2-morpholino-9H-purin-9-yl)piperidin-1-yl)(phenyl)methanone]",10 to 20 nM,76.44%
"Cc1cccc(/C=N/Nc2nc(N3CCOCC3)nc3c2ncn3C2CCN(C(=O)N(C)C)CC2)c1 [Example 90, (E)-N,N-dimethyl-4-(6-(2-(3-methylbenzylidene)hydrazinyl)-2-morpholino-9H-purin-9-yl)piperidine-1-carboxamide]",20 to 30 nM,66.88%
"COC(=O)N1CCC(n2cnc3c(N/N=C/c4cccc(C)c4)nc(N4CCOCC4)nc32)CC1 [Example 91, methyl (E)-4-(6-(2-(3-methylbenzylidene)hydrazinyl)-2-morpholino-9H-purin-9-yl)piperidine-1-carboxylate]",10 to 20 nM,73.33%
"Cc1cccc(/C=N/Nc2nc(N3CCOCC3)nc3c2ncn3C2CCN(S(C)(=O)=O)CC2)c1 [Example 92, (E)-4-(6-(2-(3-methylbenzylidene)hydrazinyl)-9-(1-(methylsulfonyl)piperidin-4-yl)-9H-purin-2-yl)morpholino]",20 to 30 nM,61.82%
"Cc1cccc(/C=N/Nc2nc(N3CCOCC3)nc3c2ncn3C2CCN(C(=O)c3ccncc3)CC2)c1 [Example 93, (E)-(4-(6-(2-(3-methylbenzylidene)hydrazinyl)-2-morpholino-9H-purin-9-yl)piperidin-1-yl)(pyridin-4-yl)methanone]",20 to 30 nM,66.78%
"Cc1cccc(/C=N/Nc2nc(N3CCOC[C@@H]3C)nc3c2ncn3-c2cccnc2)c1 [Example 97, (S,E)-3-methyl-4-(6-(2-(3-methylbenzylidene)hydrazinyl)-9-(pyridin-3-yl)-9H-purin-2-yl)morpholine]",10 to 20 nM,78.47%
"Cc1cccc(/C=N/Nc2nc(N3CCOCC3)nc3c2ncn3-c2ccccn2)c1 [Example 99, (E)-4-(6-(2-(3-methylbenzylidene)hydrazinyl)-9-(pyridin-2-yl)-9H-purin-2-yl)morpholine]",≤ 10 nM,87.24%
"Cc1cccc(/C=N/Nc2nc(N3CCOCC3)nc3c2ncn3-c2ccc(Cl)cc2)c1 [Example 100, (E)-4-(9-(4-chlorophenyl)-6-(2-(3-methylbenzylidene)hydrazinyl)-9H-purin-2-yl)morpholine]",≤ 10 nM,83.22%
"Cc1cccc(/C=N/Nc2nc(N3CCOCC3)nc3c2ncn3-c2ccnc(O)c2)c1 [Example 102, (E)-4-(6-(2-(3-methylbenzylidene)hydrazinyl)-2-morpholino-9H-purin-9-yl)pyridin-2-ol]",≤ 10 nM,91.19%
"Cc1cccc(/C=N/Nc2nc(N3CCOCC3)nc3c2ncn3-c2ccncc2)c1 [Example 103, (E)-4-(6-(2-(3-methylbenzylidene)hydrazinyl)-9-(pyridin-4-yl)-9H-purin-2-yl)morpholine]",≤ 10 nM,91.20%
